Measurements from paper PMC9227994, “Evaluation of the Intestinal Permeability of Rosmarinic Acid from Thunbergia laurifolia Leaf Water Extract in a Caco-2 Cell Model” (Molecules, 2022).
“Also recorded” adds a separate entry of the source. Read-outs that look alike come from different tables or passages of the source.

Columns and labels:
Caco-2 cells [1] = tested on: Caco-2 cells; parameters: method as in PMID 15784988; settings: cited from earlier work
[2] = parameters: method as in doi:10.1039/C6RA28237G; settings: rats, cited from earlier work
[3] = Cytotoxicity test, MTT assay; format: cell-based, human; settings: human, Caco-2 cells, 1000 µg/mL, read-out: cell viability
Protocol: (§1) Cell viability of TL extracts and RA on Caco-2 cells was determined using MTT following modified assay. Caco-2 cells were seeded in 96-well plates at a density of 2 × 10^4 cells/well and cultured at 37 °C and 5% CO2 for 24 h. TL extracts and RA were dissolved in 50% DMSO and diluted with complete DMEM medium containing 0.1% DMSO in the culture medium. The tested compounds were diluted with medium at a concentration range of 1–1000 µg/mL for 24 h exposure experiment. After removal of the medium, the cells were washed with PBS and incubated with 50 µL of 0.5% MTT solution for 2 h at 37 °C and 5% CO2. A total of 50 μL of DMSO was put into each well to dissolve the formazan crystals. The absorbance was detected using a microplate reader at 590 nm. The percentage of cell viability was calculated according to the following Equation (1):(1) % Cell viability=A (sample)−A (blank)/A (control)−A (blank)×100 where A (sample) is absorbance value of sample; A (blank) is absorbance value of blank, and A (negative control) is absorbance value of control (cells). The experiment was performed in three replicates, and the concentration with a viability of more than 90% was chosen for evaluation in monolayer transport experiments as nontoxic to cells.

Caco-2 cells [4] = experiment: Cytotoxicity test, MTT assay; format: cell-based, human; settings: concentrations below 500 µg/mL, 24 h
Protocol: as §1

[5] = Stability of RA in HBSS (pH 7.4) at 37 °C for 2 h; format: physicochemical; settings: HBSS pH 7.4, 37 °C, TL extract 250 µg/mL equivalent to pure RA 3.267 µg/mL
Protocol: The stability of RA in the TL extract of 250 µg/mL, which was equivalent to pure RA of 3.267 µg/mL in HBSS solution was determined. The TL extracts and RA were dissolved in HBSS solution (pH 7.4) and incubated at 37 °C for 2 h according to the same conditions as in the transport experiment. The contents of the RA as in TL extract and pure compound were measured for stability tests using HPLC. Their RA remains before and after incubation were calculated and expressed as a percentage of RA.

[6] = cited from earlier work
Caco-2 cell monolayers = experiment: Transepithelial transport (permeability) across Caco-2 cell monolayers, HPLC-PDA, with or without β-glucuronidase/sulfatase deconjugation; format: in vitro ADME, human; settings: for Papp (A-B) relative to B-A direction: after deconjugation; for ER (after Deconjugation): Papp (B-A)/Papp (A-B)
Protocol: (§2) Caco-2 cells (ATCC no. HTB-37) were obtained from the American Type Culture Collection (Rockville, MD, USA) and cultured in DMEM containing […] sodium pyruvate, 20% fetal bovine serum, and 10,000 U/mL penicillin and 10,000 ug/mL streptomycin. Cell culture was maintained at 37 °C in a humidified atmosphere of 5% CO2. On achieving 80–90% confluence, Caco-2 cells were harvested using 0.25% trypsin–EDTA solution and mixed with complete DMEM medium. All cells were used for transport experiments between passages 30 and 40. The integrity of the Caco-2 cell monolayer in the transwell plates was evaluated by measuring transepithelial electrical resistance (TEER) across the monolayers using Millicell-ERS VoltOhm Meter (Millipore, Temecula, CA, USA). […] A (cm^2) is the area of the insert, 1.12 cm^2. […] The culture medium in inserts and plates was changed every 2–3 days for both A and B sides. All cells were used for transport experiments on days 19–21 postseeding. Before starting the transport experiment, the inserts were washed twice and equilibrated with transport buffer (HBSS containing […] HEPES, pH 7.4) for 30 min. Sample solutions of TL extract and RA were prepared and diluted in HBSS to the desired final concentrations. For the transport study of TL extract and RA across Caco-2 cell, sample solutions were added on donor chamber, 400 µL on A side or 1200 µL on B side. The equal volumes of transport buffer were replaced in the receiving chambers. The RA transport in samples was assessed either in A-B or B-A direction across Caco-2 cell monolayers. The plates were incubated at 37 °C for 120 min with gentle shaking at 100 rpm. The solutions of 200 µL on A side and 600 µL on B side were collected at the selected times of 30, 60, 90, and 120 min and immediately replaced with an equal volume of transport buffer to maintain the total volume in receiving chamber. Samples were stored at −80°C until analysis. The amount of transported RA in samples and reference compound was calculated using HPLC system according to the standard curve. β-glucuronidase/sulfatase (Type H-2 from Helix pomatia, 85 units/L of glucuronidase, and 7.5 units/L of sulfatase, Sigma-Aldrich Co., St. Louis, MO, USA) was added to collected samples, which were obtained from B-A solutions at 30, 60, 90, and 120 min, in a ratio of 1:20 and incubated at 37 °C for 4 h to release the parent compounds. These samples from both sides were then injected directly and analyzed for RA by HPLC. The relationship of Q (cumulative permeated amount; μg) versus time, was calculated with the following Equation (3):(3) Q=CnV+∑i=1n−1CiS where Cn is concentration of RA determined at nth sampling interval; V is volume of individual side, ∑i=1n−1Ci is sum of concentration of RA determined at sampling intervals 1 through n − 1, and S is volume of sampling aliquot The Papp (unit: cm/s) was determined and calculated from the amount of compound permeated per time by the following Equation (4):(4) Papp=(dQ/dt/C0×A) where dQ/dt is the steady-state flux of test compound across the cell monolayer in the receiver chamber (µg/min); C0 is the initial concentration in the donor (A or B side) chamber (µg/mL), and A is the surface area of the cell monolayer (cm^2). The membrane area (cm^2) of the insert is 1.12 cm^2. The ER was determined by calculating the ratio of Papp (B-A) versus Papp (A-B) as the following Equation (5):(5) ER=Papp (B-A)/Papp (A-B) where Papp (B-A) is the apparent permeability coefficient value in B-A direction, and Papp (A-B) is the permeability coefficient value in A-B direction. Basolateral recovery (%) was calculated as the amount of test compound transported through the Caco-2 cell monolayer to the B side and remaining on the A side at the end of the experiment divided by the initial amount on the A side.

[7] = as above; format: in vitro ADME, human; settings: human, after β-glucuronidase/sulfatase
Protocol: as §2

[8] = pure RA 3.267 µg/mL, after β-glucuronidase/sulfatase, listed as RA in pure RA

O=C(/C=C/c1ccc(O)c(O)c1)O[C@H](Cc1ccc(O)c(O)c1)C(=O)O [RA, Rosmarinic acid]
RA absorbed in Caco-2 cells (Caco-2 cells [1]): 0.03–0.06%
oral absolute BA ([2]; single oral dose 12.5 mg/kg): 1.69%
oral absolute BA ([2]; single oral dose 25 mg/kg): 1.28%
oral absolute BA ([2]; single oral dose 50 mg/kg): 0.91%
viability at 24 h, 1000 µg/mL [3]: 85%
Cytotoxicity to Caco-2 cells (Caco-2 cells [4]): nontoxic
RA stability in HBSS [5]: 91%
logarithm of octanol–water partition coefficient (logP) [6]: 1.626
partition coefficient (log Kow) [6]: 1.82
efflux ratio (ER), overall (Caco-2 cell monolayers; all concentrations, below 2 taken as no active efflux): less than 2
Papp (A-B) relative to B-A direction (Caco-2 cell monolayers; pure RA 3.267 µg/mL): 2.02 fold
ER (after Deconjugation) (Caco-2 cell monolayers; pure RA 3.267 µg/mL): 0.5
Papp A-B Direction (after Deconjugation) (Caco-2 cell monolayers; [8]): 41.2 ± 2.3 × 10^−6 cm/s
Papp B-A Direction (after Deconjugation) (Caco-2 cell monolayers; [8]): 20.4 ± 5.2 × 10^−6 cm/s
Papp (A-B) relative to B-A direction (Caco-2 cell monolayers; pure RA 6.808 µg/mL): 3.67 fold
ER (after Deconjugation) (Caco-2 cell monolayers; pure RA 6.808 µg/mL): 0.3
Papp A-B Direction (after Deconjugation) (Caco-2 cell monolayers; pure RA 6.808 µg/mL, after β-glucuronidase/sulfatase, listed as RA in pure RA): 22.9 ± 1.0 × 10^−6 cm/s
Papp values before deconjugation, A-B and B-A directions (Caco-2 cell monolayers; pure RA, both concentrations, both directions): could not be detected; also recorded: not detectable
Papp A→B at 120 min, 3.267 µg/mL ([7]; Caco-2, pH 7.4, pure RA 3.267 µg/mL, read-out: Papp A-B Direction (after Deconjugation)): 41.2 ± 2.29 ×10⁻⁶ cm/s
Papp B→A at 120 min, 3.267 µg/mL ([7]; Caco-2, pH 7.4, pure RA 3.267 µg/mL, read-out: Papp B-A Direction (after Deconjugation)): 20.4 ± 5.16 ×10⁻⁶ cm/s
Papp A→B at 120 min, 6.808 µg/mL ([7]; Caco-2, pH 7.4, pure RA 6.808 µg/mL, read-out: Papp A-B Direction (after Deconjugation)): 22.9 ± 0.97 ×10⁻⁶ cm/s
Papp B→A at 120 min, 6.808 µg/mL ([7]; Caco-2, pH 7.4, pure RA 6.808 µg/mL, read-out: Papp B-A Direction (after Deconjugation)): 6.2 ± 0.2 ×10⁻⁶ cm/s
